Reference: patent US10688086B2, “Method for treating cancer with dihydropyridine calcium antagonist” (GERMARK BIOTECHNOLOGY CO., LTD, priority 2016, dated 2020)

Tests used:
[1] = system: patients having cervical cancer; experiment: NHIRD statistical analysis of death/survival with vs without Amlodipine, cervical cancer; format: in vivo, human
[2] = system: Hep3B cells; experiment: Cell viability (WST-1 72 hrs; PI flow cytometry 48 hrs), Hep3B; format: cell-based
Procedure: Two liver cancer cell lines HepG2 and Hep3B were cultured. The medium used for the culture of the cells was DMEM medium containing 10% fetal bovine serum, 10,000 U/ml penicillin and 10,000 μg/ml streptomycin. The culture occurred in an environment at 37° C. with 5% CO2, and the medium was changed every 2-3 days during the culture. After the cells were cultured to about 70% confluence, they were treated with various concentrations of Amlodipine: 0, 1.5625, 3.125, 6.25, 12.5, 25, and 50 μM for various times: 48, and 72 hrs. After the experiment, the viability of each liver cancer cell line was observed and the cell viability and cell cycle were analyzed. The HepG2 and Hep3B cells treated with various concentrations of Amlodipine for 72 hrs were added to WST-1 reagent. After 330 minutes of reaction, the absorbance at a wavelength of 420-480 nm was measured. The HepG2 and Hep3B cells treated with various concentrations of Amlodipine for 48 hrs were scraped off with 0.05% Trypsin-EDTA, and then added to 2 mg/ml PI solution. The cell viability was analyzed by flow cytometry.

[3] = system: patients having colorectal cancer; experiment: NHIRD statistical analysis of death/survival with vs without Amlodipine, colorectal cancer; format: in vivo, human
[4] = system: Hep3B cells; experiment: Western blotting of apoptosis-related proteins, Hep3B; format: cell-based; conditions: various concentrations, 24 hours
Procedure: (§1) The expression of apoptosis-related genes in each liver cancer cell line treated with various concentrations of Amlodipine for 24 hours were detected by Western blotting.

[5] = system: Hep3B cells; experiment: Cell metastasis (Transwell, Calcein AM fluorescence), Hep3B; format: cell-based; conditions: 10 μM, 48 or 72 hrs
Procedure: The HepG2 and Hep3B cells were separately cultured in an insert of the Transwell plate, then added with 10 μM Amlodipine and cultured for 48 or 72 hrs. The insert was placed in a serum-free DMEM medium containing […] Calcien AM. Fluorescent staining was carried out in a culture environment at 37° C. After about 45-60 min, the cells were scraped off with 0.05% Trypsin-EDTA, and the fluorescence intensity at a wavelength of 490 to 520 nm was measured.

[6] = system: Hep3B cells; experiment: Cell invasion (Transwell, crystal violet), Hep3B; format: cell-based; conditions: 10 μM, 72 hrs
Procedure: The HepG2 and Hep3B cells were separately cultured in the insert of the Transwell plate, then added with 10 μM Amlodipine and cultured for 48 or 72 hrs. The cells on the inner surface of the insert were taken out, and the insert was placed in methanol and stained with a crystal violet solution. […] That is, Amlodipine is effective in slowing the progression of cancers, thereby achieving a therapeutic effect in the treatment of cancers.

[7] = system: patients having bladder cancer; experiment: NHIRD statistical analysis of death/survival with vs without Amlodipine, bladder cancer; format: in vivo, human
[8] = system: cancer patients; experiment: NHIRD statistical analysis, cancer patients overall; format: in vivo, human
Procedure: In this example, statistical analysis was performed on the statistics of the effects of Amlodipine in the treatment of cancers, using data from the National Health Insurance Research Database (NHIRD) covering detailed healthcare data for the population in Taiwan. Then, the diagnostic data at the time of admission in the database and the database of patients with registered major injuries were used, and statistical analysis was performed using data from patients with gastric cancer.
The dose of Amlodipine used in Example 1 was at least 120 mg/30 days. Therefore, in order to obtain the minimum effective dose, the survival rate of patients treated with Amlodipine for days in 90 days after cancer diagnosis was further statistically analyzed.

[9] = system: patients having liver cancer; experiment: NHIRD statistical analysis of death/survival with vs without Amlodipine, liver cancer; format: in vivo, human
[10] = system: HepG2 cells; experiment: Western blotting of apoptosis-related proteins, HepG2; format: cell-based; conditions: various concentrations, 24 hours
Procedure: as §1

[11] = system: liver cancer cells Hep3B; experiment: Cell cycle analysis by flow cytometry, Hep3B; format: cell-based
Procedure: Two liver cancer cell lines HepG2 and Hep3B were cultured. The medium used for the culture of the cells was DMEM medium containing 10% fetal bovine serum, 10,000 U/ml penicillin and 10,000 μg/ml streptomycin. The culture occurred in an environment at 37° C. with 5% CO2, and the medium was changed every 2-3 days during the culture. After the cells were cultured to about 70% confluence, they were treated with various concentrations of Amlodipine: 0, 1.5625, 3.125, 6.25, 12.5, 25, and 50 μM for various times: 48, and 72 hrs. After the experiment, the viability of each liver cancer cell line was observed and the cell viability and cell cycle were analyzed. The cell cycle of each liver cancer cell line treated under different conditions was analyzed by flow cytometry. […] Still further, each liver cancer cell line was treated with Amlodipine at a concentration of 12.5 μM for 0, 12, 24, 36 and 48 hrs, and the cell cycle was analyzed by flow cytometry.

[12] = system: patients having breast cancer; experiment: NHIRD statistical analysis of death/survival with vs without Amlodipine, breast cancer; format: in vivo, human
[13] = 24/30: Amlodipine at least 24 days within 30 days after cancer diagnosis
[14] = 48/60: Amlodipine at least 48 days within 60 days after cancer diagnosis
[15] = 72/90: Amlodipine at least 72 days within 90 days after cancer diagnosis
[16] = Amlodipine for 20 days within 90 days after diagnosis
[17] = 12.5 μM Amlodipine, treatment time 12 hr
[18] = 12.5 μM Amlodipine, treatment time 24 hr
[19] = 12.5 μM Amlodipine, treatment time 36 hr
[20] = 12.5 μM Amlodipine, treatment time 48 hr

CCOC(=O)C1=C(COCCN)NC(C)=C(C(=O)OC)C1c1ccccc1Cl (centres unmarked) [Amlodipine]
Crude HR HRs (95% C.I.) [1, 13]: 0.50 (0.46-0.55)
Crude HR HRs (95% C.I.) [1, 14]: 0.51 (0.46-0.56)
Crude HR HRs (95% C.I.) [1, 15]: 0.46 (0.42-0.51)
Crude HR HRs (95% C.I.) [1, 16]: 1.00 (0.89-1.11)
Amlodipine concentration at which the best inhibitory effect on the growth of liver cancer cells is achieved [2]: greater than or equal to 12.5 μM
cell viability of liver cancer cells treated with Amlodipine ([2]; 1.5625-50 μM, 48 and 72 hrs, FIGS. 10, 13-15): decreased
Crude HR HRs (95% C.I.) [3, 13]: 0.46 (0.44-0.49)
Crude HR HRs (95% C.I.) [3, 14]: 0.44 (0.42-0.47)
Crude HR HRs (95% C.I.) [3, 16]: 0.76 (0.72-0.80)
Crude HR HRs (95% C.I.) ([3]; day of treatment with Amlodipine 72/9): 0.44 (0.42-0.47)
intracellular expression of apoptotic proteins (Western blotting) [4]: results in the intracellular expression of apoptotic proteins
fluorescence intensity (cell metastasis) vs cells not treated with Amlodipine [5]: lower
fluorescence intensity (cell invasion) vs cells not treated with Amlodipine [6]: lower
Crude HR HRs (95% C.I.) [7, 13]: 0.54 (0.50-0.59)
Crude HR HRs (95% C.I.) [7, 14]: 0.55 (0.50-0.60)
Crude HR HRs (95% C.I.) [7, 15]: 0.55 (0.50-0.61)
Crude HR HRs (95% C.I.) [7, 16]: 0.82 (0.75-0.90)
mortality of cancer patients (in words) ([8]; Table 1, at least 120 mg/30 days): effectively reduce the mortality of cancer patients
survival rate of cancer patients (in words) ([8]; Table 2, FIGS. 1-8, 100 mg in 90 days, follow-up 3 years, vs no Amlodipine): increase the survival rate of cancer patients
Crude HR HRs (95% C.I.) [9, 13]: 0.55 (0.53-0.59)
Crude HR HRs (95% C.I.) [9, 14]: 0.54 (0.51-0.57)
Crude HR HRs (95% C.I.) [9, 15]: 0.55 (0.52-0.58)
Crude HR HRs (95% C.I.) [9, 16]: 0.73 (0.69-0.77)
intracellular expression of apoptotic proteins (Western blotting) [10]: results in the intracellular expression of apoptotic proteins
Proportion of cell distribution in cell cycle (%) M1: ([11]; 1.5625 μM Amlodipine, 48 hrs): 5.34%
Proportion of cell distribution in cell cycle (%) M2: ([11]; 1.5625 μM Amlodipine, 48 hrs): 74.88%
Proportion of cell distribution in cell cycle (%) M3: ([11]; 1.5625 μM Amlodipine, 48 hrs): 7.06%
Proportion of cell distribution in cell cycle (%) M4: ([11]; 1.5625 μM Amlodipine, 48 hrs): 12.82%
Proportion of cell distribution in cell cycle (%) M1: ([11]; 3.125 μM Amlodipine, 48 hrs): 6.51%
Proportion of cell distribution in cell cycle (%) M2: ([11]; 3.125 μM Amlodipine, 48 hrs): 73.83%
Proportion of cell distribution in cell cycle (%) M3: ([11]; 3.125 μM Amlodipine, 48 hrs): 6.63%
Proportion of cell distribution in cell cycle (%) M4: ([11]; 3.125 μM Amlodipine, 48 hrs): 13.17%
Proportion of cell distribution in cell cycle (%) M1: ([11]; 6.25 μM Amlodipine, 48 hrs): 6.48%
Proportion of cell distribution in cell cycle (%) M2: ([11]; 6.25 μM Amlodipine, 48 hrs): 72.91%
Proportion of cell distribution in cell cycle (%) M3: ([11]; 6.25 μM Amlodipine, 48 hrs): 6.74%
Proportion of cell distribution in cell cycle (%) M4: ([11]; 6.25 μM Amlodipine, 48 hrs): 13.93%
Proportion of cell distribution in cell cycle (%) M1: ([11]; 12.5 μM Amlodipine, 48 hrs): 16.96%
Proportion of cell distribution in cell cycle (%) M2: ([11]; 12.5 μM Amlodipine, 48 hrs): 67.77%
Proportion of cell distribution in cell cycle (%) M3: ([11]; 12.5 μM Amlodipine, 48 hrs): 6.58%
Proportion of cell distribution in cell cycle (%) M4: ([11]; 12.5 μM Amlodipine, 48 hrs): 8.83%
Proportion of cell distribution in cell cycle (%) M1: [11, 17]: 24.89%
Proportion of cell distribution in cell cycle (%) M2: [11, 17]: 62.89%
Proportion of cell distribution in cell cycle (%) M3: [11, 17]: 4.22%
Proportion of cell distribution in cell cycle (%) M4: [11, 17]: 8.08%
Proportion of cell distribution in cell cycle (%) M1: [11, 18]: 30.77%
Proportion of cell distribution in cell cycle (%) M2: [11, 18]: 56.25%
Proportion of cell distribution in cell cycle (%) M3: [11, 18]: 5.46%
Proportion of cell distribution in cell cycle (%) M4: [11, 18]: 7.55%
Proportion of cell distribution in cell cycle (%) M1: [11, 19]: 39.90%
Proportion of cell distribution in cell cycle (%) M2: [11, 19]: 47.73%
Proportion of cell distribution in cell cycle (%) M3: [11, 19]: 5.03%
Proportion of cell distribution in cell cycle (%) M4: [11, 19]: 7.47%
Proportion of cell distribution in cell cycle (%) M1: [11, 20]: 56.61%
Proportion of cell distribution in cell cycle (%) M2: [11, 20]: 29.59%
Proportion of cell distribution in cell cycle (%) M3: [11, 20]: 7.08%
Proportion of cell distribution in cell cycle (%) M4: [11, 20]: 6.82%
cell division (cell cycle, in words) ([11]; 12.5 μM or more, 48 hrs): most cells were unable to undergo cell division
Proportion of cell distribution in cell cycle (%) M1: ([11]; 25 μM Amlodipine, 48 hrs): 57.32%
Proportion of cell distribution in cell cycle (%) M2: ([11]; 25 μM Amlodipine, 48 hrs): 28.75%
Proportion of cell distribution in cell cycle (%) M3: ([11]; 25 μM Amlodipine, 48 hrs): 8.02%
Proportion of cell distribution in cell cycle (%) M4: ([11]; 25 μM Amlodipine, 48 hrs): 6.10%
Crude HR HRs (95% C.I.) [12, 13]: 0.54 (0.50-0.59)
Crude HR HRs (95% C.I.) [12, 14]: 0.53 (0.48-0.57)
Crude HR HRs (95% C.I.) [12, 15]: 0.50 (0.46-0.55)
Crude HR HRs (95% C.I.) [12, 16]: 0.91 (0.83-0.99)
